Results published in the NIST ThermoML archive (doi:10.1016/j.jct.2018.09.024).
± gives the expanded uncertainty stated by the source.

Assays:
[1] = 101.33 kPa, Liquid, Laser flash apparatus
[2] = molar heat capacity at constant pressure; conditions: 101.33 kPa, Liquid, DSC

Row | Compound | thermal diffusivity ([1]; 303.15 K) | thermal diffusivity ([1]; 313.15 K) | thermal diffusivity ([1]; 323.15 K) | thermal diffusivity ([1]; 333.15 K) | thermal diffusivity ([1]; 343.15 K) | thermal diffusivity ([1]; 353.15 K) | thermal diffusivity ([1]; 363.15 K) | thermal diffusivity ([1]; 373.15 K) | thermal diffusivity ([1]; 383.15 K) | thermal diffusivity ([1]; 393.15 K) | thermal diffusivity ([1]; 403.15 K) | molar heat capacity at constant pressure ([2]; 303.15 K) | molar heat capacity at constant pressure ([2]; 313.15 K) | molar heat capacity at constant pressure ([2]; 323.15 K) | molar heat capacity at constant pressure ([2]; 333.15 K) | molar heat capacity at constant pressure ([2]; 343.15 K) | molar heat capacity at constant pressure ([2]; 353.15 K) | molar heat capacity at constant pressure ([2]; 363.15 K) | molar heat capacity at constant pressure ([2]; 373.15 K) | other results
1 | CCCCCCCCCC(=O)OC [methyl decanoate] | 8.1e-08 ± 4.3e-09 m2/s | 7.99e-08 ± 4.3e-09 m2/s | 7.87e-08 ± 4.2e-09 m2/s | 7.75e-08 ± 4.1e-09 m2/s | 7.64e-08 ± 4.1e-09 m2/s | 7.52e-08 ± 4e-09 m2/s | 7.4e-08 ± 4e-09 m2/s | 7.28e-08 ± 3.9e-09 m2/s | 7.17e-08 ± 3.8e-09 m2/s | 7.05e-08 ± 3.8e-09 m2/s | 6.93e-08 ± 3.7e-09 m2/s | 384.7 ± 16 J/K/mol | 387.6 ± 16 J/K/mol | 391.8 ± 16 J/K/mol | 396.7 ± 16 J/K/mol | 401.9 ± 16 J/K/mol | 407.3 ± 16 J/K/mol | 412.4 ± 17 J/K/mol | 417.2 ± 17 J/K/mol | 
2 | CCCCCCCCCCCC(=O)OC [methyl dodecanoate] | 8.27e-08 ± 4.4e-09 m2/s | 8.15e-08 ± 4.3e-09 m2/s | 8.03e-08 ± 4.3e-09 m2/s | 7.91e-08 ± 4.2e-09 m2/s | 7.79e-08 ± 4.2e-09 m2/s | 7.67e-08 ± 4.1e-09 m2/s | 7.55e-08 ± 4e-09 m2/s | 7.43e-08 ± 4e-09 m2/s | 7.3e-08 ± 3.9e-09 m2/s | 7.18e-08 ± 3.8e-09 m2/s | 7.06e-08 ± 3.8e-09 m2/s | 449 ± 18 J/K/mol | 452.8 ± 18 J/K/mol | 457.4 ± 19 J/K/mol | 462.6 ± 19 J/K/mol | 468.4 ± 19 J/K/mol | 474.5 ± 19 J/K/mol | 480.7 ± 20 J/K/mol | 486.8 ± 20 J/K/mol | thermal diffusivity ([1]; 413.15 K): 6.94e-08 ± 3.7e-09 m2/s; thermal diffusivity ([1]; 423.15 K): 6.82e-08 ± 3.7e-09 m2/s
3 | CCCCCCCCCCC(=O)OC [methyl undecanoate] | 8.22e-08 ± 4.4e-09 m2/s | 8.1e-08 ± 4.3e-09 m2/s | 7.98e-08 ± 4.3e-09 m2/s | 7.86e-08 ± 4.2e-09 m2/s | 7.74e-08 ± 4.1e-09 m2/s | 7.62e-08 ± 4.1e-09 m2/s | 7.5e-08 ± 4e-09 m2/s | 7.38e-08 ± 4e-09 m2/s | 7.26e-08 ± 3.9e-09 m2/s | 7.14e-08 ± 3.8e-09 m2/s | 7.02e-08 ± 3.8e-09 m2/s | 411.4 ± 17 J/K/mol | 415.9 ± 17 J/K/mol | 420.9 ± 17 J/K/mol | 426.1 ± 17 J/K/mol | 431.4 ± 18 J/K/mol | 436.7 ± 18 J/K/mol | 441.8 ± 18 J/K/mol | 446.5 ± 18 J/K/mol | thermal diffusivity ([1]; 413.15 K): 6.9e-08 ± 3.7e-09 m2/s; thermal diffusivity ([1]; 423.15 K): 6.78e-08 ± 3.6e-09 m2/s
4 | CCCCCCC(=O)OC [methyl heptanoate] | 7.82e-08 ± 4.2e-09 m2/s | 7.71e-08 ± 4.1e-09 m2/s | 7.59e-08 ± 4.1e-09 m2/s | 7.48e-08 ± 4e-09 m2/s | 7.36e-08 ± 3.9e-09 m2/s | 7.25e-08 ± 3.9e-09 m2/s | 7.14e-08 ± 3.8e-09 m2/s |  |  |  |  | 289.2 ± 12 J/K/mol | 292.5 ± 12 J/K/mol | 296.2 ± 12 J/K/mol | 300.1 ± 12 J/K/mol | 304.3 ± 12 J/K/mol | 308.6 ± 12 J/K/mol | 312.8 ± 13 J/K/mol | 316.9 ± 13 J/K/mol | 
5 | CCCCCC(=O)OC [methyl hexanoate] | 7.76e-08 ± 4.1e-09 m2/s | 7.66e-08 ± 4.1e-09 m2/s | 7.56e-08 ± 4e-09 m2/s | 7.46e-08 ± 4e-09 m2/s |  |  |  |  |  |  |  | 246.4 ± 10 J/K/mol | 248.8 ± 10 J/K/mol | 251.5 ± 10 J/K/mol | 254.6 ± 10 J/K/mol | 257.9 ± 10 J/K/mol | 261.5 ± 11 J/K/mol | 265.5 ± 11 J/K/mol | 269.6 ± 11 J/K/mol | 
6 | CCCCCCCC(=O)OC [methyl octanoate] | 7.92e-08 ± 4.2e-09 m2/s | 7.81e-08 ± 4.2e-09 m2/s | 7.69e-08 ± 4.1e-09 m2/s | 7.57e-08 ± 4e-09 m2/s | 7.46e-08 ± 4e-09 m2/s | 7.34e-08 ± 3.9e-09 m2/s | 7.22e-08 ± 3.9e-09 m2/s | 7.11e-08 ± 3.8e-09 m2/s | 6.99e-08 ± 3.7e-09 m2/s |  |  | 316.6 ± 13 J/K/mol | 320.5 ± 13 J/K/mol | 324.4 ± 13 J/K/mol | 328.7 ± 13 J/K/mol | 333.2 ± 14 J/K/mol | 337.8 ± 14 J/K/mol | 342.8 ± 14 J/K/mol | 347 ± 14 J/K/mol | 
7 | CCCCCCCCC(=O)OC [methyl nonanoate] | 8.01e-08 ± 4.3e-09 m2/s | 7.89e-08 ± 4.2e-09 m2/s | 7.78e-08 ± 4.2e-09 m2/s | 7.66e-08 ± 4.1e-09 m2/s | 7.54e-08 ± 4e-09 m2/s | 7.43e-08 ± 4e-09 m2/s | 7.31e-08 ± 3.9e-09 m2/s | 7.19e-08 ± 3.9e-09 m2/s | 7.08e-08 ± 3.8e-09 m2/s |  |  | 351.7 ± 14 J/K/mol | 354.7 ± 14 J/K/mol | 358.6 ± 15 J/K/mol | 363.1 ± 15 J/K/mol | 367.9 ± 15 J/K/mol | 372.8 ± 15 J/K/mol | 377.6 ± 15 J/K/mol | 382 ± 16 J/K/mol | 
